This experiment has as its target T1, purified human sGC treated with ODQ (oxidized heme) (Homo sapiens, UniProt Q02153).
T1 construct: purchased EnzoLifeScience, Lörrach, Germany
T1 sequence (Q02153 1-619): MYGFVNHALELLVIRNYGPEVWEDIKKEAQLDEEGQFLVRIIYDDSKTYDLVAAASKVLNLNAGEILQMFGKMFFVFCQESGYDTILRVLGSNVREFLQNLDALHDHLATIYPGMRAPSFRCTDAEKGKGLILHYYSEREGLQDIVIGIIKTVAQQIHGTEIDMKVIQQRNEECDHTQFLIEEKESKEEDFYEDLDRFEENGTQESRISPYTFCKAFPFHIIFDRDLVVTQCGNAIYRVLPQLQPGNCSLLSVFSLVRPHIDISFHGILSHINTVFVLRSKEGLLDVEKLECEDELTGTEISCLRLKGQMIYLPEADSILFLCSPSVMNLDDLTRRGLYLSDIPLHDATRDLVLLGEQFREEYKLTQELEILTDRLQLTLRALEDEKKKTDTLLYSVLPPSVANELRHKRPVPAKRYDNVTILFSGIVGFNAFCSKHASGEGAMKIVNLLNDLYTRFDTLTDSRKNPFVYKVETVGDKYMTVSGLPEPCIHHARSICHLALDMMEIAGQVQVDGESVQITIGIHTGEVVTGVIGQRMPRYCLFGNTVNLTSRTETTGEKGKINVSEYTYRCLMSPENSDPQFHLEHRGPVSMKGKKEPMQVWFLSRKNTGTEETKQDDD
T1 sequence (Q02108 1-690 partner): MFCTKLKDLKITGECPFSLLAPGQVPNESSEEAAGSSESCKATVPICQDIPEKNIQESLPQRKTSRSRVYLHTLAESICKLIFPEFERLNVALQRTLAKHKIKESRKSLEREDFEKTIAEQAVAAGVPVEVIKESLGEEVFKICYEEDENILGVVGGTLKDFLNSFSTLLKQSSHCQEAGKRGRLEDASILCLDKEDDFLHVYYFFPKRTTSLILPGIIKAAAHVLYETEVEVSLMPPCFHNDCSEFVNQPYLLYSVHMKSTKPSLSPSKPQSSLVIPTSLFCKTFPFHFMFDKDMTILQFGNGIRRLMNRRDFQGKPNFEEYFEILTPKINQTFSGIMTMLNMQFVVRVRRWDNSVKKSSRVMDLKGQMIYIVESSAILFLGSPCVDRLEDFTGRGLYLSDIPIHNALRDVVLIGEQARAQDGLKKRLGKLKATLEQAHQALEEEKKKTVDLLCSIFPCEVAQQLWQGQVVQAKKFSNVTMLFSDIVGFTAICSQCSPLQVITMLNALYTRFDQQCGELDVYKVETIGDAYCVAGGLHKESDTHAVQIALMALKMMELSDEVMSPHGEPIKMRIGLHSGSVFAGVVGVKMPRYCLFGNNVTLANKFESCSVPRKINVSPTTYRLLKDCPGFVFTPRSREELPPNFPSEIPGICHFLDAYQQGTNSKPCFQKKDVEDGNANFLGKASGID
The experiment is described as follows: sGC activity of purified human sGC treated with ODQ. It counts as biochemical. Conditions: 10 μM ODQ, 0.3 μM BAY 58-2667 ± 10 μM BAY 41-2272 (FIG. 7A); ODQ concentration series with 30 μM Bay 41-2272 (FIG. 7B).

For the compound `Nc1nc(-c2nn(Cc3ccccc3F)c3ncccc23)ncc1C1CC1` [BAY 41-2272, 5-cyclopropyl-2-[1-(2-fluoro-benzyl)-1H-pyrazolo[3,4-b]pyridin-3-yl]-pyrimidin-4-ylamine], the “sGC activity of sGC with fully oxidized heme on addition of sGC stimulator” value was “still activatable by potentiation”.

For the origin of these results see patent US20230087609A1, “USE OF A SOLUBLE GUANYLATE CYCLASE (sGC) STIMULATOR OR OF A COMBINATION OF A sGC STIMULATOR AND AN sGC ACTIVATOR FOR CONDITIONS WHEREIN THE HEME GROUP OF sGC IS OXIDIZED OR WHEREIN sGC IS DEFICIENT IN HEME” (Universiteit Maastricht, priority 2020, published 2023).
